Test results from US20100216791A1, “PYRIDINYLQUINAZOLINAMINE DERIVATIVES AND THEIR USE AS B-RAF INHIBITORS” (ASTRAZENECA, priority 2006, published 2010).

Molecular target: Mutant B-Raf (V600E) enzyme (MT B-Raf) (Homo sapiens, UniProt P15056, V600E)
Assay: biochemical
Conditions: B-Raf Alpha screen comparable to the described assay; phosphorylation of biotinylated HIS-MEK-AVI; results may be an average of two or more results

Sequence of Mutant B-Raf (V600E) enzyme (MT B-Raf) (P15056 whole entry V600E): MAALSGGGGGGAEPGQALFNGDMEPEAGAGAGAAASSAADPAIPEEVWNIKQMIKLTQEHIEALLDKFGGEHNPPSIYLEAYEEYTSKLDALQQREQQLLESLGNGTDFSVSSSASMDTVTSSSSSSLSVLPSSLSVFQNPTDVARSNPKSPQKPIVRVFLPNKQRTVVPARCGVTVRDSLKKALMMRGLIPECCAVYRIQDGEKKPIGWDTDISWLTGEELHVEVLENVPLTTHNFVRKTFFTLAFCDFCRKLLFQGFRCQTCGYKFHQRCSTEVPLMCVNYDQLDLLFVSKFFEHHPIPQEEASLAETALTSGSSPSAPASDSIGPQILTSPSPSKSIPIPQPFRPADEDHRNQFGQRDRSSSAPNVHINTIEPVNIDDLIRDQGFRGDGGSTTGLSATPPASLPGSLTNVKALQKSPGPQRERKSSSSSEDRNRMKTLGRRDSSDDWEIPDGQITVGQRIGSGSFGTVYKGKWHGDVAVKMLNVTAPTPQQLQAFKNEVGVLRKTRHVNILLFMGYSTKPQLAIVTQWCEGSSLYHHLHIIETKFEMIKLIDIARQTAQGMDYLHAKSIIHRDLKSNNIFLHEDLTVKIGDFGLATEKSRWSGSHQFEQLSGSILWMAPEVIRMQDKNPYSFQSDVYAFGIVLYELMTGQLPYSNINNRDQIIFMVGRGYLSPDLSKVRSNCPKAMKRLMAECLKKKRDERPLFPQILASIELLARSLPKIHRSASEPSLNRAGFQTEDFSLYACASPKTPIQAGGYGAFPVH

Work on CN(C)CCOc1ccc(Nc2ncc3cc(-c4ccncc4)ccc3n2)cc1 [Example 40, N-{4-[2-(Dimethylamino)ethoxy]phenyl}-6-pyridin-4-ylquinazolin-2-amine] yielded an IC50 of 160 nM.

With COCCNS(=O)(=O)c1ccc(Nc2ncc3cc(-c4ccncc4)ccc3n2)cc1 [Example 113] the IC50 was 100 nM.

Work on CNCCNC(=O)c1cccc(Nc2ncc3cc(-c4ccncc4)ccc3n2)n1 [Example 65, N-[2-(Methylamino)ethyl]-6-[(6-pyridin-4-ylquinazolin-2-yl)amino]pyridine-2-carboxamide] yielded an IC50 of 1000 nM.

For CN(C)c1ccc(Nc2ncc3cc(-c4ccncc4)ccc3n2)cc1 [Example 107, N,N-Dimethyl-N′-(6-pyridin-4-ylquinazolin-2-yl)benzene-1,4-diamine], the IC50 was 1900 nM.

In the case of NCCNC(=O)c1ccc(Nc2ncc3cc(-c4ccncc4)ccc3n2)cc1 [Example 63, N-(2-Aminoethyl)-4-[(6-pyridin-4-ylquinazolin-2-yl)amino]benzamide], the IC50 is reported as 98 nM.

COc1ccc(Nc2ncc3cc(-c4ccncc4)ccc3n2)cc1 [Example 41, N-(4-Methoxyphenyl)-6-pyridin-4-ylquinazolin-2-amine] was tested, and the IC50 was 460 nM.

COC(=O)c1ccc(Nc2ncc3cc(-c4ccncc4)ccc3n2)cc1 [Example 9, Methyl 4-[(6-pyridin-4-ylquinazolin-2-yl)amino]benzoate] showed an IC50 of 230 nM.

With c1cc(-c2ccc3nc(Nc4ccc(N5CCCCC5)cc4)ncc3c2)ccn1 [Example 89, N-(4-Piperidin-1-ylphenyl)-6-pyridin-4-ylquinazolin-2-amine] the IC50 was 280 nM.

Work on c1cc(-c2ccc3nc(Nc4ccc(N5CCOCC5)cc4)ncc3c2)ccn1 [Example 79, N-(4-Morpholin-4-ylphenyl)-6-pyridin-4-ylquinazolin-2-amine] yielded an IC50 of 130 nM.

CC(C)(C)OC(=O)N1CCCC1CNC(=O)c1ccc(Nc2ncc3cc(-c4ccncc4)ccc3n2)cc1 (stereo not drawn) [Example 19, tert-Butyl 2-[({4-[(6-pyridin-4-ylquinazolin-2-yl)amino]benzoyl}amino)methyl]pyrrolidine-1-carboxylate] gave an IC50 of 490 nM.

For CCCNC(C)c1ccc(Nc2ncc3cc(-c4ccncc4)ccc3n2)cc1 (single isomer, unassigned) [Example 142], the IC50 was 12 nM.

Cc1cc(Nc2ncc3cc(-c4ccncc4)ccc3n2)ccc1C(=O)NCCN(C)C [Example 36, N-[2-(Dimethylamino)ethyl]-2-methyl-4-[(6-pyridin-4-ylquinazolin-2-yl)amino]benzamide] gave an IC50 of 95 nM.

Compound CN(C)CCCNC(=O)c1ccc(Nc2ncc3cc(-c4ccncc4)ccc3n2)cc1 [Example 31, N-[3-(Dimethylamino)propyl]-4-[(6-pyridin-4-ylquinazolin-2-yl)amino]benzamide] has an IC50 of 82 nM.

O=S(=O)(c1cccc(Nc2ncc3cc(-c4ccncc4)ccc3n2)c1)N1CCCCC1 [Example 100, N-[3-(Piperidin-1-ylsulfonyl)phenyl]-6-pyridin-4-ylquinazolin-2-amine] was tested, and the IC50 was 1000 nM.

With CC(C)(C#N)c1ccc(Nc2ncc3cc(-c4ccncc4)ccc3n2)cc1 [Example 2, 2-Methyl-2-{4-[(6-pyridin-4-ylquinazolin-2-yl)amino]phenyl}propanenitrile] the IC50 was 730 nM.

c1cc(-c2ccc3nc(Nc4ccc(OCCN5CCCCC5)cc4)ncc3c2)ccn1 [Example 42, N-[4-(2-Piperidin-1-ylethoxy)phenyl]-6-pyridin-4-ylquinazolin-2-amine] gave an IC50 of 230 nM.

CC(C)(C)OC(=O)NCCNC(=O)c1ccc(Nc2ncc3cc(-c4ccncc4)ccc3n2)cc1 [Example 25, tert-Butyl [2-({4-[(6-pyridin-4-ylquinazolin-2-yl)amino]benzoyl}amino)ethyl]carbamate] showed an IC50 of 390 nM.

COCC(C)NC(=O)c1ccc(Nc2ncc3cc(-c4ccncc4)ccc3n2)cc1 (stereo not drawn) [Example 32, N-(2-Methoxy-1-methylethyl)-4-[(6-pyridin-4-ylquinazolin-2-yl)amino]benzamide] was tested, and the IC50 was 130 nM.

Cc1cccc(Nc2ncc3cc(-c4ccncc4)ccc3n2)c1 [Example 83, N-(3-Methylphenyl)-6-pyridin-4-ylquinazolin-2-amine] showed an IC50 of 630 nM.

Work on CS(=O)(=O)c1cccc(Nc2ncc3cc(-c4ccncc4)ccc3n2)c1 [Example 104, N-[3-(Methylsulfonyl)phenyl]-6-pyridin-4-ylquinazolin-2-amine] yielded an IC50 of 160 nM.

In the case of CC(c1ccc(Nc2ncc3cc(-c4ccncc4)ccc3n2)cc1)N(C)CCCO (stereo not drawn) [Example 135], the IC50 is reported as 29 nM.

In the case of CS(=O)(=O)c1ccc(Nc2ncc3cc(-c4ccncc4)ccc3n2)cc1 [Example 103, N-[4-(Methylsulfonyl)phenyl]-6-pyridin-4-ylquinazolin-2-amine], the IC50 is reported as 62 nM.

CN(C)C1CCN(C(=O)c2ccc(Nc3ncc4cc(-c5ccncc5)ccc4n3)cc2)C1 (stereo not drawn) [Example 117] was tested, and the IC50 was 73 nM.

CC(C)NCCNC(=O)c1ccc(Nc2ncc3cc(-c4ccncc4)ccc3n2)cc1 [Example 28, N-[2-(Isopropylamino)ethyl]-4-[(6-pyridin-4-ylquinazolin-2-yl)amino]benzamide] showed an IC50 of 140 nM.

Compound OCCc1ccc(Nc2ncc3cc(-c4ccncc4)ccc3n2)cc1 [Example 52, 2-{4-[(6-Pyridin-4-ylquinazolin-2-yl)amino]phenyl}ethanol] has an IC50 of 120 nM.

For c1cc(-c2ccc3nc(Nc4ccc(CNCCN5CCOCC5)cc4)ncc3c2)ccn1 [Example 70, N-(4-{[(2-Morpholin-4-ylethyl)amino]methyl}phenyl)-6-pyridin-4-ylquinazolin-2-amine], the IC50 was 74 nM.

In the case of COCCNC(=O)c1ccc(Nc2ncc3cc(-c4ccncc4)ccc3n2)nc1 [Example 18, N-(2-Methoxyethyl)-6-[(6-pyridin-4-ylquinazolin-2-yl)amino]nicotinamide], the IC50 is reported as 1300 nM.

CC(=O)N1CCN(C(=O)c2ccc(Nc3ncc4cc(-c5ccncc5)ccc4n3)cc2)CC1 [Example 119] gave an IC50 of 64 nM.

Work on CCCCNS(=O)(=O)c1cccc(Nc2ncc3cc(-c4ccncc4)ccc3n2)c1 [Example 84, N-Butyl-3-[(6-pyridin-4-ylquinazolin-2-yl)amino]benzenesulfonamide] yielded an IC50 of 820 nM.

CCCNC(C)c1ccc(Nc2ncc3cc(-c4ccncc4)ccc3n2)cc1 (stereo not drawn) [Example 138] gave an IC50 of 47 nM.

O=S(=O)(c1ccc(Nc2ncc3cc(-c4ccncc4)ccc3n2)cc1)N1CCOCC1 [Example 94, N-[4-(Morpholin-4-ylsulfonyl)phenyl]-6-pyridin-4-ylquinazolin-2-amine] gave an IC50 of 300 nM.

For Cn1ccc(Nc2ncc3cc(-c4ccncc4)ccc3n2)n1 [Example 88, N-(1-Methyl-1H-pyrazol-3-yl)-6-pyridin-4-ylquinazolin-2-amine], the IC50 was 1820 nM.

With CCN(CCO)Cc1ccc(Nc2ncc3cc(-c4ccncc4)ccc3n2)cc1 [Example 77, 2-(Ethyl{4-[(6-pyridin-4-ylquinazolin-2-yl)amino]benzyl}amino)ethanol] the IC50 was 99 nM.

O=C(NCCOCCO)c1ccc(Nc2ncc3cc(-c4ccncc4)ccc3n2)cc1 [Example 8, N-[2-(2-Hydroxyethoxy)ethyl]-4-[(6-pyridin-4-ylquinazolin-2-yl)amino]benzamide] was tested, and the IC50 was 120 nM.

With CNCCNC(=O)c1ccnc(Nc2ncc3cc(-c4ccncc4)ccc3n2)c1 [Example 66, N-[2-(Methylamino)ethyl]-2-[(6-pyridin-4-ylquinazolin-2-yl)amino]isonicotinamide] the IC50 was 700 nM.

With O=C(NCCO)c1ccc(Nc2ncc3cc(-c4ccncc4)ccc3n2)cc1 [Example 7, N-(2-Hydroxyethyl)-4-[(6-pyridin-4-ylquinazolin-2-yl)amino]benzamide] the IC50 was 140 nM.

O=C(NCCc1ccccn1)c1ccc(Nc2ncc3cc(-c4ccncc4)ccc3n2)cc1 [Example 20, N-(2-Pyridin-2-ylethyl)-4-[(6-pyridin-4-ylquinazolin-2-yl)amino]benzamide] gave an IC50 of 250 nM.

COCCNC(=O)c1ccnc(Nc2ncc3cc(-c4ccncc4)ccc3n2)c1 [Example 37, N-(2-Methoxyethyl)-2-[(6-pyridin-4-ylquinazolin-2-yl)amino]isonicotinamide] gave an IC50 of 1700 nM.

c1cc(Nc2ncc3cc(-c4ccncc4)ccc3n2)cc(N2CCOCC2)c1 [Example 85, N-(3-Morpholin-4-ylphenyl)-6-pyridin-4-ylquinazolin-2-amine] showed an IC50 of 390 nM.

Compound CC(O)CCNC(=O)c1ccc(Nc2ncc3cc(-c4ccncc4)ccc3n2)cc1 (stereo not drawn) [Example 34, N-(3-Hydroxybutyl)-4-[(6-pyridin-4-ylquinazolin-2-yl)amino]benzamide] has an IC50 of 270 nM.

CC(NCCO)c1ccc(Nc2ncc3cc(-c4ccncc4)ccc3n2)cc1 (stereo not drawn) [Example 57, 2-[(1-{4-[(6-Pyridin-4-ylquinazolin-2-yl)amino]phenyl}ethyl)amino]ethanol] showed an IC50 of 29 nM.

Cc1cc(Nc2ncc3cc(-c4ccncc4)ccc3n2)ccc1C(=O)NCCN1CCCCC1 [Example 51, 2-Methyl-N-(2-(piperidin-1-yl)ethyl)-4-(6-(pyridin-4-yl)quinazolin-2-ylamino)benzamide] gave an IC50 of 130 nM.

O=C(NCC1CCCN1)c1ccc(Nc2ncc3cc(-c4ccncc4)ccc3n2)cc1 (stereo not drawn) [Example 60, 4-[(6-Pyridin-4-ylquinazolin-2-yl)amino]-N-pyrrolidin-2-ylmethylbenzamide] was tested, and the IC50 was 150 nM.

Fc1cccc(Nc2ncc3cc(-c4ccncc4)ccc3n2)c1 [Example 98, N-(3-Fluorophenyl)-6-pyridin-4-ylquinazolin-2-amine] showed an IC50 of 630 nM.

CC(NCCCO)c1ccc(Nc2ncc3cc(-c4ccncc4)ccc3n2)cc1 (stereo not drawn) [Example 58, 3-[(1-{4-[(6-Pyridin-4-ylquinazolin-2-yl)amino]phenyl}ethyl)amino]propan-1-ol] gave an IC50 of 36 nM.

Compound c1cc(-c2ccc3nc(Nc4ccc5c(c4)OCCO5)ncc3c2)ccn1 [Example 45, N-(2,3-Dihydro-1,4-benzodioxin-6-yl)-6-pyridin-4-ylquinazolin-2-amine] has an IC50 of 300 nM.

Compound COCCNC(=O)c1ccc(Nc2ncc3cc(-c4ccncc4)ccc3n2)c(OC)c1 [Example 114] has an IC50 of 6800 nM.

Cc1cc(Nc2ncc3cc(-c4ccncc4)ccc3n2)ccc1C(=O)NCCN1CCOCC1 [Example 33, 2-Methyl-N-(2-morpholin-4-ylethyl)-4-[(6-pyridin-4-ylquinazolin-2-yl)amino]benzamide] gave an IC50 of 160 nM.
